According to PMC5085761 (International Journal of Molecular Sciences, 2016):

How the values were obtained:
LLC-PK1 monolayer model = assay: Inhibition study of [14C]fluciclovine apical-to-basal transport, LLC-PK1 monolayer model; details: 1 mM inhibitor, 10 µM [14C]fluciclovine
From the text: Natural and synthetic amino acids were used as inhibitors: MeAIB (2-(methylamino)-isobutyric acid, for system A in the presence of Na^+); Thr (L-threonine, for system ASC in the presence of Na^+); and BCH (2-aminobicyclo[2,2,1]heptane-2-carboxylic acid, for system L in the absence of Na^+).

LLC-PK1 monolayers = assay: Apical-to-basal transport through LLC-PK1 monolayers; type: in vitro ADME, pig
Description: The LLC-PK1 cell line was purchased from DS Pharma Biomedical (Osaka, Japan). Cells were maintained in Dulbecco’s modified Eagle’s medium (DMEM; Life Technologies Japan, Tokyo, Japan) supplemented with 10% (v/v) fetal bovine serum (American Type Culture Collection, Manassas, VA, USA) and antibiotics (100 U/mL penicillin and 100 μg/mL streptomycin (Life Technologies Japan)). Cells were cultured at 37 °C under an atmosphere containing 5% CO2 before the start of the experiments.
Cells were seeded at a density of 1.5 × 10^6 cells/0.25 mL on the membrane of cell culture inserts fitting 24-well plates (upper compartment, apical side; Becton Dickinson, Franklin Lakes, NJ, USA). Flat-bottom 24-well tissue culture plates (Becton Dickinson) containing 0.95 mL of culture medium per well were used as the basolateral side (bottom compartment).
LLC-PK1 monolayer formation was monitored by the measurement of TER using an EVOM-2 and Endohm24 (World Precision Instruments, Inc., Sarasota, FL, USA) according to the manufacturer’s protocol. […] [^3H]Mannitol transport was measured as described in Section 4.3 for the validation of tight junction formation because mannitol passes through the cell monolayers via the paracellular route.
Experimental procedures were performed as described previously with minor modifications. After cultivation as described above, the culture media in both compartments were replaced with Na^+ buffer (137 mM NaCl, 2.7 mM KCl, 8 mM Na2HPO4, 1.5 mM KH2PO4, 5.6 mM D-glucose, 0.9 mM CaCl2, and 0.5 mM MgCl2; pH 7.4 at 37 °C), and the cells were preincubated for 10 min at 37 °C under normal air conditions. After the buffer was removed from each compartment, the permeability experiments were started with the addition of 0.25 mL of Na^+ buffer containing radiolabeled tracers (final concentration: 81 nM for [^3H]mannitol and 10 μM for the ^14C-labeled amino acid tracers) in each upper compartment, and 0.95 mL of Na^+ buffer in each bottom compartment. The inserts were placed into new 24-well culture plates containing 0.95 mL/well of Na^+ buffer after 5, 15, 30, 60, and 90 min of incubation. Subsequently, the cells were incubated up to 120 min at 37 °C under normal air conditions.
The apical-to-basal permeability was measured by sampling an aliquot of the buffer from the upper and bottom compartment at the indicated times. To evaluate intracellular accumulation, the cells were lysed in 0.5 mL of 0.1N NaOH at room temperature following rapid washing of the cells with ice-cold Na^+ buffer. The radioactivity of each aliquot was measured with an LSC6000SC (Beckman Coulter, Inc., Brea, CA, USA) or Tri-Carb 2910TR liquid scintillation counter (PerkinElmer) using Ultima Gold (PerkinElmer).

[1] = system: L-type amino acid transporter 1 (LAT1); design: method as in PMID 23647854; details: cited from earlier work
[2] = system: alanine-serine-cysteine transporter 2 (ASCT2); design: method as in PMID 23647854; details: cited from earlier work
[3] = system: sodium-coupled neutral amino acid transporter 2 (SNAT2); design: method as in PMID 23647854; details: cited from earlier work
[18F]fluciclovine uptake = system: [18F]fluciclovine uptake; design: method as in PMID 21536930; details: cited from earlier work
[4] = substrate: N[C@]1(C(=O)O)C[C@@H](F)C1; assay: cells, lysate or membranes named; details: not significant vs control vesicles, pH 7.0

NC1(C(=O)O)CC2CCC1C2 (stereo not drawn) [BCH, 2-aminobicyclo[2,2,1]heptane-2-carboxylic acid]
inhibition of [14C]fluciclovine apical-to-basal transport (LLC-PK1 monolayer model; Na+-free buffer): no significant inhibition

CNC(C)(C)C(=O)O [MeAIB, 2-(methylamino)-isobutyric acid]
inhibition of [14C]fluciclovine apical-to-basal transport (LLC-PK1 monolayer model; Na+ buffer): no significant inhibition

C[C@@H](O)[C@H](N)C(=O)O [Thr, L-threonine]
inhibition of [14C]fluciclovine apical-to-basal transport (LLC-PK1 monolayer model; Na+ buffer): significant inhibition

OC[C@@H](O)[C@@H](O)[C@H](O)[C@H](O)CO [[^3H]mannitol, D-[1-^3H(N)]mannitol]
mean percentage of [3H]mannitol permeation (LLC-PK1 monolayers; day 1 after seeding): 19.3% | mean percentage of [3H]mannitol permeation (LLC-PK1 monolayers; day 4 after seeding): 1.23% | mean percentage of [3H]mannitol permeation (LLC-PK1 monolayers; day 7 after seeding): 2.29%

N[C@]1(C(=O)O)C[C@@H](F)C1 [[^18F]fluciclovine, trans-1-amino-3-[^18F]fluorocyclobutanecarboxylic acid]
Km [1]: 230 µM | Km [2]: 92 µM | Km [3]: 222 µM

Nc1ccc(C(=O)NCC(=O)O)cc1 [p-aminohippurate]
inhibition of [18F]fluciclovine uptake ([18F]fluciclovine uptake): approximately 5%

B1: human MRP4 (Homo sapiens) (protein)
chain: MLPVYQEVKPNPLQDANLCSRVFFWWLNPLFKIGHKRRLEEDDMYSVLPEDRSQHLGEELQGFWDKEVLRAENDAQKPSLTRAIIKCYWKSYLVLGIFTLIEESAKVIQPIFLGKIINYFENYDPMDSVALNTAYAYATVLTFCTLILAILHHLYFYHVQCAGMRLRVAMCHMIYRKALRLSNMAMGKTTTGQIVNLLSNDVNKFDQVTVFLHFLWAGPLQAIAVTALLWMEIGISCLAGMAVLIILLPLQSCFGKLFSSLRSKTATFTDARIRTMNEVITGIRIIKMYAWEKSFSNLITNLRKKEISKILRSSCLRGMNLASFFSASKIIVFVTFTTYVLLGSVITASRVFVAVTLYGAVRLTVTLFFPSAIERVSEAIVSIRRIQTFLLLDEISQRNRQLPSDGKKMVHVQDFTAFWDKASETPTLQGLSFTVRPGELLAVVGPVGAGKSSLLSAVLGELAPSHGLVSVHGRIAYVSQQPWVFSGTLRSNILFGKKYEKERYEKVIKACALKKDLQLLEDGDLTVIGDRGTTLSGGQKARVNLARAVYQDADIYLLDDPLSAVDAEVSRHLFELCICQILHEKITILVTHQLQYLKAASQILILKDGKMVQKGTYTEFLKSGIDFGSLLKKDNEESEQPPVPGTPTLRNRTFSESSVWSQQSSRPSLKDGALESQDTENVPVTLSEENRSEGKVGFQAYKNYFRAGAHWIVFIFLILLNTAAQVAYVLQDWWLSYWANKQSMLNVTVNGGGNVTEKLDLNWYLGIYSGLTVATVLFGIARSLLVFYVLVNSSQTLHNKMFESILKAPVLFFDRNPIGRILNRFSKDIGHLDDLLPLTFLDFIQTLLQVVGVVSVAVAVIPWIAIPLVPLGIIFIFLRRYFLETSRDVKRLESTTRSPVFSHLSSSLQGLWTIRAYKAEERCQELFDAHQDLHSEAWFLFLTTSRWFAVRLDAICAMFVIIVAFGSLILAKTLDAGQVGLALSYALTLMGMFQWCVRQSAEVENMMISVERVIEYTDLEKEAPWEYQKRPPPAWPHEGVIIFDNVNFMYSPGGPLVLKHLTALIKSQEKVGIVGRTGAGKSSLISALFRLSEPEGKIWIDKILTTEIGLHDLRKKMSIIPQEPVLFTGTMRKNLDPFNEHTDEELWNALQEVQLKETIEDLPGKMDTELAESGSNFSVGQRQLVCLARAILRKNQILIIDEATANVDPRTDELIQKKIREKFAHCTVLTIAHRLNTIIDSDKIMVLDSGRLKEYDEPYVLLQNKESLFYKMVQQLGKAEAAALTETAKQVYFKRNYPHIGHTDHMVTNTSNGQPSTLTIFETAL
Km ([4]; other: MRP4 vesicles): 15.3 ± 44.1 mM

B2: human BCRP (Homo sapiens) (protein)
chain: MSSSNVEVFIPVSQGNTNGFPATASNDLKAFTEGAVLSFHNICYRVKLKSGFLPCRKPVEKEILSNINGIMKPGLNAILGPTGGGKSSLLDVLAARKDPSGLSGDVLINGAPRPANFKCNSGYVVQDDVVMGTLTVRENLQFSAALRLATTMTNHEKNERINRVIQELGLDKVADSKVGTQFIRGVSGGERKRTSIGMELITDPSILFLDEPTTGLDSSTANAVLLLLKRMSKQGRTIIFSIHQPRYSIFKLFDSLTLLASGRLMFHGPAQEALGYFESAGYHCEAYNNPADFFLDIINGDSTAVALNREEDFKATEIIEPSKQDKPLIEKLAEIYVNSSFYKETKAELHQLSGGEKKKKITVFKEISYTTSFCHQLRWVSKRSFKNLLGNPQASIAQIIVTVVLGLVIGAIYFGLKNDSTGIQNRAGVLFFLTTNQCFSSVSAVELFVVEKKLFIHEYISGYYRVSSYFLGKLLSDLLPMRMLPSIIFTCIVYFMLGLKPKADAFFVMMFTLMMVAYSASSMALAIAAGQSVVSVATLLMTICFVFMMIFSGLLVNLTTIASWLSWLQYFSIPRYGFTALQHNEFLGQNFCPGLNATGNNPCNYATCTGEEYLVKQGIDLSPWGLWKNHVALACMIVIFLTIAYLKLLFLKKYS
Km ([4]; other: BCRP vesicles): 1.34 ± 1.45 mM
